Active and inactive are the calls of the source. The calls are words filed in the database; no cut-off is given here.
Key:
Streptococcus mutans = test: Antibacterial activity against Streptococcus mutans UA159 assessed as reduction in bacterial growth incubated for 24 hrs by serial dilution method; type: functional; conditions: UA159, 24 h, read-out: MIC
Staphylococcus aureus [1] = test: Disruption of membrane integrity in methicillin-resistant Staphylococcus aureus ATCC 19498 assessed as shrinking of cell membrane at MIC incubated for 24 hrs by scanning electron microscopy; type: functional, organism-based
Erythrocyte = test: Hemolytic activity in mouse Erythrocyte assessed as HC10 incubated for 1 hr; type: ADME, cell-based
Staphylococcus aureus [2] = test: Inhibition of biofilm formation in methicillin-resistant Staphylococcus aureus ATCC 19498 assessed as downregulation of hld gene at MIC incubated for 1 hr by qRT-PCR; type: functional, organism-based
Staphylococcus aureus [3] = test: Disruption of membrane integrity in methicillin-resistant Staphylococcus aureus ATCC 19498 assessed as decrease in cell volume at MIC incubated for 24 hrs by scanning electron microscopy; type: functional, organism-based
Staphylococcus aureus [4] = test: Disruption of membrane integrity in Staphylococcus aureus ATCC 29213 assessed as invagination of cell membrane at MIC incubated for 24 hrs by scanning electron microscopy; type: functional, organism-based
Staphylococcus aureus [5] = test: Antibacterial activity against Staphylococcus aureus ATCC 25923 assessed as reduction in bacterial growth incubated for 24 hrs by serial dilution method; type: functional; conditions: ATCC 25923, 24 h, read-out: MIC
Staphylococcus aureus [6] = test: Disruption of membrane integrity in methicillin-resistant Staphylococcus aureus ATCC 19498 assessed as extravasation of cytoplasmic content at MIC incubated for 24 hrs by scanning electron microscopy; type: functional, organism-based
Staphylococcus aureus [7] = test: Inhibition of biofilm formation in methicillin-resistant Staphylococcus aureus ATCC 19498 at MIC incubated for 24 hrs by scanning electron microscopy; type: functional, organism-based
Staphylococcus aureus [8] = test: Inhibition of biofilm formation in Staphylococcus aureus ATCC 25923 assessed as downregulation of […] gene at MIC incubated for 1 hr by qRT-PCR; type: functional, organism-based
Staphylococcus aureus [9] = test: Disruption of membrane integrity in methicillin-resistant Staphylococcus aureus ATCC 19498 assessed as cell membrane damage at MIC incubated for 24 hrs by scanning electron microscopy; type: functional, organism-based
Staphylococcus aureus [10] = test: Inhibition of biofilm formation in methicillin-resistant Staphylococcus aureus ATCC 19498 assessed as downregulation of […] gene at MIC incubated for 1 hr by qRT-PCR; type: functional, organism-based
Staphylococcus aureus [11] = test: Disruption of membrane integrity in methicillin-resistant Staphylococcus aureus ATCC 18466 assessed as invagination of cell membrane at MIC incubated for 24 hrs by scanning electron microscopy; type: functional, organism-based
Staphylococcus aureus [12] = test: Inhibition of biofilm formation in methicillin-resistant Staphylococcus aureus ATCC 18466 at MIC incubated for 24 hrs by scanning electron microscopy; type: functional, organism-based
[13] = Stability in mouse plasma at 20 uM incubated for 24 hrs by HPLC-MS analysis; type: ADME, cell-free
Staphylococcus aureus [14] = test: Disruption of membrane integrity in methicillin-resistant Staphylococcus aureus ATCC 18466 assessed as shrinking of cell membrane at MIC incubated for 24 hrs by scanning electron microscopy; type: functional, organism-based
Staphylococcus aureus [15] = test: Disruption of membrane integrity in methicillin-resistant Staphylococcus aureus ATCC 19498 assessed as perforation of cell membrane at MIC incubated for 24 hrs by scanning electron microscopy; type: functional, organism-based
Staphylococcus aureus [16] = test: Inhibition of biofilm formation in methicillin-resistant Staphylococcus aureus ATCC 18466 assessed as downregulation of hld gene at MIC incubated for 1 hr by qRT-PCR; type: functional, organism-based
Staphylococcus aureus [17] = test: Inhibition of biofilm formation in Staphylococcus aureus ATCC 29213 assessed as downregulation of spa gene at MIC incubated for 1 hr by qRT-PCR; type: functional, organism-based
Staphylococcus aureus [18] = test: Disruption of membrane integrity in methicillin-resistant Staphylococcus aureus ATCC 18466 assessed as perforation of cell membrane at MIC incubated for 24 hrs by scanning electron microscopy; type: functional, organism-based
Staphylococcus aureus [19] = test: Inhibition of biofilm formation in Staphylococcus aureus ATCC 29213 at MIC incubated for 24 hrs by scanning electron microscopy; type: functional, organism-based
Staphylococcus aureus [20] = test: Inhibition of biofilm formation in Staphylococcus aureus ATCC 29213 assessed as downregulation of mecA gene at MIC incubated for 1 hr by qRT-PCR; type: functional, organism-based
Staphylococcus aureus [21] = test: Disruption of membrane integrity in Staphylococcus aureus ATCC 29213 assessed as cell membrane damage at MIC incubated for 24 hrs by scanning electron microscopy; type: functional, organism-based
Staphylococcus aureus [22] = test: Disruption of membrane integrity in methicillin-resistant Staphylococcus aureus ATCC 18466 assessed as cell membrane damage at MIC incubated for 24 hrs by scanning electron microscopy; type: functional, organism-based
Staphylococcus aureus [23] = test: Disruption of membrane integrity in methicillin-resistant Staphylococcus aureus ATCC 19498 assessed as invagination of cell membrane at MIC incubated for 24 hrs by scanning electron microscopy; type: functional, organism-based
Staphylococcus aureus [24] = test: Disruption of membrane integrity in Staphylococcus aureus ATCC 25923 assessed as extravasation of cytoplasmic content at MIC incubated for 24 hrs by scanning electron microscopy; type: functional, organism-based
Staphylococcus aureus [25] = test: Inhibition of biofilm formation in Staphylococcus aureus ATCC 25923 assessed as downregulation of hld gene at MIC incubated for 1 hr by qRT-PCR; type: functional, organism-based
[26] = Stability in MRSA supernatant at 20 uM incubated for 24 hrs by HPLC-MS analysis; type: physicochemical
Staphylococcus aureus [27] = test: Inhibition of biofilm formation in Staphylococcus aureus ATCC 25923 assessed as downregulation of mecA gene at MIC incubated for 1 hr by qRT-PCR; type: functional, organism-based
Staphylococcus aureus [28] = test: Disruption of membrane integrity in Staphylococcus aureus ATCC 25923 assessed as decrease in cell volume at MIC incubated for 24 hrs by scanning electron microscopy; type: functional, organism-based
Staphylococcus aureus [29] = test: Disruption of membrane integrity in Staphylococcus aureus ATCC 29213 assessed as decrease in cell volume at MIC incubated for 24 hrs by scanning electron microscopy; type: functional, organism-based
Staphylococcus aureus [30] = test: Inhibition of biofilm formation in methicillin-resistant Staphylococcus aureus ATCC 18466 assessed as downregulation of mecA gene at MIC incubated for 1 hr by qRT-PCR; type: functional, organism-based
Staphylococcus aureus [31] = test: Disruption of membrane integrity in Staphylococcus aureus ATCC 29213 assessed as perforation of cell membrane at MIC incubated for 24 hrs by scanning electron microscopy; type: functional, organism-based
[32] = Hemolytic activity in mouse Erythrocyte assessed as HC50 incubated for 1 hr; type: ADME, cell-based; conditions: mouse erythrocytes
Staphylococcus aureus [33] = test: Antibacterial activity against Staphylococcus aureus ATCC 29213 assessed as reduction in bacterial growth at MIC measured after 15 passages; type: functional
Staphylococcus aureus [34] = test: Inhibition of biofilm formation in methicillin-resistant Staphylococcus aureus ATCC 18466 assessed as downregulation of spa gene at MIC incubated for 1 hr by qRT-PCR; type: functional, organism-based
Staphylococcus aureus [35] = test: Inhibition of biofilm formation in Staphylococcus aureus ATCC 25923 at MIC incubated for 24 hrs by scanning electron microscopy; type: functional, organism-based
Staphylococcus aureus [36] = test: Inhibition of biofilm formation in methicillin-resistant Staphylococcus aureus ATCC 18466 assessed as downregulation of […] gene at MIC incubated for 1 hr by qRT-PCR; type: functional, organism-based
Streptococcus sanguinis = test: Antibacterial activity against Streptococcus sanguinis ATCC 10556 assessed as reduction in bacterial growth incubated for 24 hrs by serial dilution method; type: functional; conditions: ATCC 10556, 24 h, read-out: MIC

Substance	MIC (Streptococcus mutans) [µg/mL]	Activity (Staphylococcus aureus [1])	HC10 (Erythrocyte) [µg/mL]	inhibition (Staphylococcus aureus [2])	Activity (Staphylococcus aureus [3])	Activity (Staphylococcus aureus [4])	MIC (Staphylococcus aureus [5]) [µg/mL]	Activity (Staphylococcus aureus [6])	inhibition (Staphylococcus aureus [7])	inhibition (Staphylococcus aureus [8])	Activity (Staphylococcus aureus [9])	inhibition (Staphylococcus aureus [10])	Activity (Staphylococcus aureus [11])	inhibition (Staphylococcus aureus [12])	Stability [13]	Activity (Staphylococcus aureus [14])	Activity (Staphylococcus aureus [15])	inhibition (Staphylococcus aureus [16])	inhibition (Staphylococcus aureus [17])	Activity (Staphylococcus aureus [18])	further results
H-YIRKIRRFFKKLKKILKK-NH2	64	Active	640	Active	Active	Active	8	Active	Active	Active	Active	Active	Active	Active	Unstable	Active	Active	Active	Active	Active	inhibition (Staphylococcus aureus [19]): Active; inhibition (Staphylococcus aureus [20]): inactive; Activity (Staphylococcus aureus [21]): Active; Activity (Staphylococcus aureus [22]): Active; Activity (Staphylococcus aureus [23]): Active; Activity (Staphylococcus aureus [24]): Active; inhibition (Staphylococcus aureus [25]): Active; Stability [26]: Stable; inhibition (Staphylococcus aureus [27]): inactive; Activity (Staphylococcus aureus [28]): Active; Activity (Staphylococcus aureus [29]): Active; inhibition (Staphylococcus aureus [30]): inactive; Activity (Staphylococcus aureus [31]): Active; HC50 at 1 h [32]: > 640 µg/mL; Activity (Staphylococcus aureus [33]): Active; inhibition (Staphylococcus aureus [34]): Active; inhibition (Staphylococcus aureus [35]): Active; inhibition (Staphylococcus aureus [36]): Active; MIC (Streptococcus sanguinis): < 64 µg/mL
H-SYERKINRHFKTLKKNLKKK-NH2	< 64	Active	> 640	Active	Active	Active	32	Active	Active	Active	Active	Active	Active	Active	Unstable	Active	Active	Active	Active	Active	inhibition (Staphylococcus aureus [19]): Active; inhibition (Staphylococcus aureus [20]): inactive; Activity (Staphylococcus aureus [21]): Active; Activity (Staphylococcus aureus [22]): Active; Activity (Staphylococcus aureus [23]): Active; Activity (Staphylococcus aureus [24]): Active; inhibition (Staphylococcus aureus [25]): Active; Stability [26]: Stable; inhibition (Staphylococcus aureus [27]): inactive; Activity (Staphylococcus aureus [28]): Active; Activity (Staphylococcus aureus [29]): Active; inhibition (Staphylococcus aureus [30]): inactive; Activity (Staphylococcus aureus [31]): Active; HC50 at 1 h [32]: > 640 µg/mL; Activity (Staphylococcus aureus [33]): Active; inhibition (Staphylococcus aureus [34]): Active; inhibition (Staphylococcus aureus [35]): Active; inhibition (Staphylococcus aureus [36]): Active; MIC (Streptococcus sanguinis): < 64 µg/mL
